Source: patent publication US9926281B2 (priority 2014, dated 2018)

Legend:
human TACE = human TACE (Homo sapiens (Human), UniProt P78536); settings: read-out: TACE potency IC50
human ADAMTS-5 = human ADAMTS-5 (Homo sapiens (Human), UniProt Q9UNA0); settings: read-out: hADAMTS-5 potency IC50
Sequence of human ADAMTS-5 (Q9UNA0 262-930): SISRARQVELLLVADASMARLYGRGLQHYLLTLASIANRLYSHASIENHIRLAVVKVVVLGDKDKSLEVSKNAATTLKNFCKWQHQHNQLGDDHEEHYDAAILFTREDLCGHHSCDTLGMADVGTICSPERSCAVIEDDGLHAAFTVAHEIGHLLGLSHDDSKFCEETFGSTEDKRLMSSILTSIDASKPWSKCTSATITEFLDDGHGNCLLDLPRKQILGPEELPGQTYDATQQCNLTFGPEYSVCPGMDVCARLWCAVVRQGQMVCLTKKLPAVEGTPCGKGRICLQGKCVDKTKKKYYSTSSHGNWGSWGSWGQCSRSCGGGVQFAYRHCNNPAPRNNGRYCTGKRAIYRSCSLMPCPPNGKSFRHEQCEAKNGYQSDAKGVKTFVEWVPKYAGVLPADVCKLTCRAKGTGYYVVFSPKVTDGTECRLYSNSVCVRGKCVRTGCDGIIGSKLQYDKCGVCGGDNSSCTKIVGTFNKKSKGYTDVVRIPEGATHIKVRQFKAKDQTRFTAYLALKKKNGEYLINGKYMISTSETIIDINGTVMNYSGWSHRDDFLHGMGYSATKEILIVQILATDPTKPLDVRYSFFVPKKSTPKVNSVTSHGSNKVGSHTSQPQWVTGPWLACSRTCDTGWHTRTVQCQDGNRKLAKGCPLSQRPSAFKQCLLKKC
Method: Finally, the fluorescence is read on the Envision (Perkin Elmer) after an incubation of 90 min at 37° C.

Sequence of human TACE (P78536 whole entry, looked up, change not shown): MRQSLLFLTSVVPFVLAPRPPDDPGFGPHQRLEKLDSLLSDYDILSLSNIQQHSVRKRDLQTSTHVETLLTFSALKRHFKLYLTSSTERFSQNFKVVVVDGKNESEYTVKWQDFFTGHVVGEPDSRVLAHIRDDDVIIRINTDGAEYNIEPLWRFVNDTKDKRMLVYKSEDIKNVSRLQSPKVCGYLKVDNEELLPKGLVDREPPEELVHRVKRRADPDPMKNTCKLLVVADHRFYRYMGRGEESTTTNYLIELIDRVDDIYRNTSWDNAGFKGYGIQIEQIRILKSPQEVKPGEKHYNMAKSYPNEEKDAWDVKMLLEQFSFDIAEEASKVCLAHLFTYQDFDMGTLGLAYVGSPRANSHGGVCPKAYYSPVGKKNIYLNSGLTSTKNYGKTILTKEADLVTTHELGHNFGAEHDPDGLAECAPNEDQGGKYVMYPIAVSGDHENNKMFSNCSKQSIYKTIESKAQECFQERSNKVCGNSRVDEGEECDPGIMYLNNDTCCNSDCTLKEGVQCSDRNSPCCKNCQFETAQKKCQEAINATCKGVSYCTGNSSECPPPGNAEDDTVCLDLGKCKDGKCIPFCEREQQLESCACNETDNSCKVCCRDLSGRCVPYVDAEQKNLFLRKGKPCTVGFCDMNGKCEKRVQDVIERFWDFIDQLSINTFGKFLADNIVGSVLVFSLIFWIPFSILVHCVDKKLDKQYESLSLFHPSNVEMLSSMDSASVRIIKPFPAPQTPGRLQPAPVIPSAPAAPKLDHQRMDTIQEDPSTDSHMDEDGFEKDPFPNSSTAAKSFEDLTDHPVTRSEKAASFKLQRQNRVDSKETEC

| Structure (SMILES) | IC50 (human TACE) [nM] | IC50 (human ADAMTS-5) [nM] |
| --- | --- | --- |
| C[C@H]1CN(C(=O)CCC2(C3CC3)NC(=O)NC2=O)CCN1c1cncnc1 (stereo partly drawn) [compound 304, 5-cyclopropyl-5-[3-[(3S)-3-methyl-4-pyrimidin-5-yl-piperazin-1-yl]-3-oxo-propyl]imidazolidine-2,4-dione] | > 20000 | > 4000 |
| C[C@H]1CN(C(=O)CCC2(c3ccccn3)NC(=O)NC2=O)CCN1c1ccc(Cl)c(Cl)c1 (stereo partly drawn) [compound 347, 5-[3-[(3S)-4-(3,4-dichlorophenyl)-3-methyl-piperazin-1-yl]-3-oxo-propyl]-5-(2-pyridyl)imidazolidine-2,4-dione] | 2380 | 21 |
| CCC1(CC(C)C(=O)N2CCN(c3ccc(F)c(Cl)c3)[C@@H](C)C2)NC(=O)NC1=O (stereo partly drawn) [compound 444, 5-(3-((S)-4-(3-chloro-4-fluorophenyl)-3-methylpiperazin-1-yl)-2-methyl-3-oxopropyl)-5-ethylimidazolidine-2,4-dione] | > 4000 | 25 |
| COCC(CC1(C)NC(=O)NC1=O)C(=O)N1CCN(c2cccc(F)c2)[C@@H](C)C1 (stereo partly drawn) [compound 292, 5-[3-[(3S)-4-(3-fluorophenyl)-3-methyl-piperazin-1-yl]-2-(methoxymethyl)-3-oxo-propyl]-5-methyl-imidazolidine-2,4-dione] | > 4000 | 48 |
| Cc1cc(N2CCN(C(=O)CCC3(CC(=O)NCCO)NC(=O)NC3=O)CC2)ccc1Cl (centres unmarked) [Cpd 402, 2-[4-[3-[4-(4-chloro-3-methyl-phenyl)piperazin-1-yl]-3-oxo-propyl]-2,5-dioxo-imidazolidin-4-yl]-N-(2-hydroxyethyl)acetamide] | – | 732 |
| Cc1ccc(C2(CCC(=O)N3CCN(c4cccc(F)c4)[C@@H](C)C3)NC(=O)NC2=O)cn1 (stereo partly drawn) [compound 385, 5-[3-[(3S)-4-(3-fluorophenyl)-3-methyl-piperazin-1-yl]-3-oxo-propyl]-5-(6-methyl-3-pyridyl)imidazolidine-2,4-dione] | > 4000 | 71 |
| COCC1(CC(C)C(=O)N2CCN(c3cncc(Cl)c3)[C@@H](C)C2)NC(=O)NC1=O (stereo partly drawn) [compound 363, 5-[3-[(3S)-4-(5-chloro-3-pyridyl)-3-methyl-piperazin-1-yl]-2-methyl-3-oxo-propyl]-5-(methoxymethyl)imidazolidine-2,4-dione] | > 12000 | 76 |
| C[C@@H](C[C@@]1(C2CC2)NC(=O)NC1=O)C(=O)N1CCN(c2ccc(F)c(-c3cn[nH]c3)c2)[C@@H](C)C1 [compound 378, 5-cyclopropyl-5-[3-[(3S)-4-[4-fluoro-3-(1H-pyrazol-4-yl)phenyl]-3-methyl-piperazin-1-yl]-2-methyl-3-oxo-propyl]imidazolidine-2,4-dione] | > 4000 | 22 |
| Cc1cccc(C2(CCC(=O)N3CCN(c4cc(Cl)cc(Cl)c4)[C@@H](C)C3)NC(=O)NC2=O)n1 (stereo partly drawn) [compound 310, 5-[3-[(3S)-4-(3,5-dichlorophenyl)-3-methyl-piperazin-1-yl]-3-oxo-propyl]-5-(6-methyl-2-pyridyl)imidazolidine-2,4-dione] | 1320 | 50 |
| Cc1ccc(C2(CCC(=O)N3CCN(c4ccc(Cl)c(Cl)c4)[C@@H](C)C3)NC(=O)NC2=O)cn1 (stereo partly drawn) [compound 464, 5-[3-[(3S)-4-(3,4-dichlorophenyl)-3-methyl-piperazin-1-yl]-3-oxo-propyl]-5-(6-methyl-3-pyridyl)imidazolidine-2,4-dione] | > 4000 | 26 |
| C[C@H]1CN(C(=O)CCC2(C3CC3)NC(=O)NC2=O)CCN1c1cc(Cl)cc(Cl)n1 (stereo partly drawn) [compound 257, 5-cyclopropyl-5-[3-[(3S)-4-(4,6-dichloro-2-pyridyl)-3-methyl-piperazin-1-yl]-3-oxo-propyl]imidazolidine-2,4-dione] | > 4000 | 1570 |
| C[C@H]1CN(C(=O)CCC2(C3CC3)NC(=O)NC2=O)CCN1c1cnccn1 (stereo partly drawn) [compound 286, 5-cyclopropyl-5-[3-[(3S)-3-methyl-4-pyrazin-2-yl-piperazin-1-yl]-3-oxo-propyl]imidazolidine-2,4-dione] | > 20000 | > 4000 |
| COCC1(CC(C)C(=O)N2CCN(c3cc(F)c(Cl)c(F)c3)CC2)NC(=O)NC1=O (centres unmarked) [compound 279, 5-[3-[4-(4-chloro-3,5-difluoro-phenyl)piperazin-1-yl]-2-methyl-3-oxo-propyl]-5-(methoxymethyl)imidazolidine-2,4-dione] | 2990 | 19 |
| C[C@H]1CN(C(=O)CCC2(C3CC3)NC(=O)NC2=O)CCN1c1ccc2[nH]ncc2c1 (stereo partly drawn) [compound 296, 5-cyclopropyl-5-[3-[(3S)-4-(1H-indazol-5-yl)-3-methyl-piperazin-1-yl]-3-oxo-propyl]imidazolidine-2,4-dione] | > 20000 | > 4000 |
| Cc1cc(-c2cccc(N3CCN(C(=O)CCC4(C5CC5)NC(=O)NC4=O)C[C@@H]3C)c2)ccn1 (stereo partly drawn) [compound 329, 5-cyclopropyl-5-[3-[(3S)-3-methyl-4-[3-(2-methyl-4-pyridyl)phenyl]piperazin-1-yl]-3-oxo-propyl]imidazolidine-2,4-dione] | > 20000 | 134 |
| C[C@H]1CN(C(=O)CCC2(c3cn(C)cn3)NC(=O)NC2=O)CCN1c1cc(Cl)cc(Cl)c1 (stereo partly drawn) [compound 466, 5-[3-[(3S)-4-(3,5-dichlorophenyl)-3-methyl-piperazin-1-yl]-3-oxo-propyl]-5-(1-methylimidazol-4-yl)imidazolidine-2,4-dione] | 2640 | 55 |

| Structure (SMILES) | IC50 (human TACE) [nM] | IC50 (human ADAMTS-5) [nM] |
| --- | --- | --- |
| Cc1ccc(C2(CCC(=O)N3CCN(c4cc(Cl)cc(Cl)c4)[C@@H](C)C3)NC(=O)NC2=O)cn1 (stereo partly drawn) [compound 384, 5-[3-[(3S)-4-(3,5-dichlorophenyl)-3-methyl-piperazin-1-yl]-3-oxo-propyl]-5-(6-methyl-3-pyridyl)imidazolidine-2,4-dione] | 2230 | 60 |
| Cc1cc(Cl)c(F)cc1N1CCN(C(=O)CCC2(C)NC(=O)NC2=O)C[C@@H]1C (stereo partly drawn) [compound 202, 5-[3-[(3S)-4-(4-chloro-5-fluoro-2-methyl-phenyl)-3-methyl-piperazin-1-yl]-3-oxo-propyl]-5-methyl-imidazolidine-2,4-dione] | – | 724 |
| CC(CC1(C2CN(C)C2)NC(=O)NC1=O)C(=O)N1CCN(c2ccc(F)c(F)c2)[C@@H](C)C1 (stereo partly drawn) [Cpd 399, 5-[3-[(3S)-4-(3,4-difluorophenyl)-3-methy-piperazin-1-yl]-2-methyl-3-oxo-propy]-5-(1-methylazetidin-3-yl)imidazolidine-2,4-dione] | – | 163 |
| CC(CC1(c2ccccn2)NC(=O)NC1=O)C(=O)N1CCN(c2ccc(F)c(Cl)c2)[C@@H](C)C1 (stereo partly drawn) [compound 245, 5-[3-[(3S)-4-(3-chloro-4-fluoro-phenyl)-3-methyl-piperazin-1-yl]-2-methyl-3-oxo-propyl]-5-(2-pyridyl)imidazolidine-2,4-dione] | – | 17 |
| COCCOCC1(CC(C)C(=O)N2CCN(c3cc(Cl)cc(Cl)c3)[C@@H](C)C2)NC(=O)NC1=O (stereo partly drawn) [compound 426, 5-(3-((S)-4-(3,5-dichlorophenyl)-3-methylpiperazin-1-yl)-2-methyl-3-oxopropyl)-5-((2-methoxyethoxy)methyl)imidazolidine-2,4-dione] | – | 110 |
| CN(C)CCC1(CCC(=O)N2CCN(c3cccc(Cl)c3)CC2)NC(=O)NC1=O (centres unmarked) [compound 44, 5-[3-[4-(3-chlorophenyl)piperazin-1-yl]-3-oxo-propyl]-5-(2-dimethylaminoethyl)imidazolidine-2,4-dione] | > 20000 | – |
| C[C@H]1CN(C(=O)CCC2(C3CC3)NC(=O)NC2=O)CCN1c1ccc2ncsc2c1 (stereo partly drawn) [compound 305, 5-[3-[(3S)-4-(1,3-benzothiazol-6-yl)-3-methyl-piperazin-1-yl]-3-oxo-propyl]-5-cyclopropyl-imidazolidine-2,4-dione] | > 20000 | – |
| Cc1c(Cl)cc(F)cc1N1CCN(C(=O)CCC2(C)NC(=O)NC2=O)CC1 (centres unmarked) [compound 293, 5-[3-[4-(3-chloro-5-fluoro-2-methyl-phenyl)piperazin-1-yl]-3-oxo-propyl]-5-methyl-imidazolidine-2,4-dione] | – | 294 |
| C[C@@H]1CN(C(=O)CC[C@@]2(C3CC3)NC(=O)NC2=O)CCN1c1cc(F)cc(F)c1 [compound 403, (5S)-5-cyclopropyl-5-[3-[(3R)-4-(3,5-difluorophenyl)-3-methyl-piperazin-1-yl]-3-oxo-propyl]imidazolidine-2,4-dione] | – | 168 |
| CC(CC1(c2ccccn2)NC(=O)NC1=O)C(=O)N1CCN(c2ccc(F)c(Cl)c2)[C@@H](C)C1 (stereo partly drawn) [compound 437, 5-(3-((S)-4-(3-chloro-4-fluorophenyl)-3-methylpiperazin-1-yl)-2-methyl-3-oxopropyl)-5-(pyridin-2-yl)imidazolidine-2,4-dione] | – | 17 |
| C[C@H]1CN(C(=O)CCC2(c3ccccn3)NC(=O)NC2=O)CCN1c1ccc(F)c(Cl)c1 (stereo partly drawn) [compound 457, 5-[3-[(3S)-4-(3-chloro-4-fluoro-phenyl)-3-methyl-piperazin-1-yl]-3-oxo-propyl]-5-(2-pyridyl)imidazolidine-2,4-dione] | – | 47 |
| Cc1cccc(C2(CCC(=O)N3CCN(c4ccc(Cl)c(Cl)c4)[C@@H](C)C3)NC(=O)NC2=O)n1 (stereo partly drawn) [compound 452, 5-[3-[(3S)-4-(3,4-dichlorophenyl)-3-methyl-piperazin-1-yl]-3-oxo-propyl]-5-(6-methyl-2-pyridyl)imidazolidine-2,4-dione] | – | 23 |
| Cc1cc(N2CCN(C(=O)CC[C@@]3(C)NC(=O)NC3=O)CC2)cc(C)c1Cl [compound 401, (5R)-5-[3-[4-(4-chloro-3,5-dimethyl-phenyl)piperazin-1-yl]-3-oxo-propyl]-5-methyl-imidazolidine-2,4-dione] | – | 1120 |
| CNc1ccccc1N1CCN(C(=O)CCC2(C3CC3)NC(=O)NC2=O)CC1 (centres unmarked) [compound 185, 5-cyclopropyl-5-[3-[4-[2-(methylamino)phenyl]piperazin-1-yl]-3-oxo-propyl]imidazolidine-2,4-dione] | – | > 4000 |
| COCCOCC1(CC(C)C(=O)N2CCN(c3cc(Cl)cc(Cl)c3)[C@@H](C)C2)NC(=O)NC1=O (stereo partly drawn) [compound 221, 5-[3-[(3S)-4-(3,5-dichlorophenyl)-3-methyl-piperazin-1-yl]-2-methyl-3-oxo-propyl]-5-(2-methoxyethoxymethyl)imidazolidine-2,4-dione] | 3200 | – |
